These results are taken from PMC3663987 (Parasitology Research, 2013).

The experiment addresses P-glycoprotein (Pgp, ABCB1) (Homo sapiens, UniProt P08183). As to the kind of experiment: Pgp-Glo ATPase stimulation assay, recombinant human Pgp membranes. It counts as biochemical.

Chain of P-glycoprotein (Pgp, ABCB1) (P08183 whole entry): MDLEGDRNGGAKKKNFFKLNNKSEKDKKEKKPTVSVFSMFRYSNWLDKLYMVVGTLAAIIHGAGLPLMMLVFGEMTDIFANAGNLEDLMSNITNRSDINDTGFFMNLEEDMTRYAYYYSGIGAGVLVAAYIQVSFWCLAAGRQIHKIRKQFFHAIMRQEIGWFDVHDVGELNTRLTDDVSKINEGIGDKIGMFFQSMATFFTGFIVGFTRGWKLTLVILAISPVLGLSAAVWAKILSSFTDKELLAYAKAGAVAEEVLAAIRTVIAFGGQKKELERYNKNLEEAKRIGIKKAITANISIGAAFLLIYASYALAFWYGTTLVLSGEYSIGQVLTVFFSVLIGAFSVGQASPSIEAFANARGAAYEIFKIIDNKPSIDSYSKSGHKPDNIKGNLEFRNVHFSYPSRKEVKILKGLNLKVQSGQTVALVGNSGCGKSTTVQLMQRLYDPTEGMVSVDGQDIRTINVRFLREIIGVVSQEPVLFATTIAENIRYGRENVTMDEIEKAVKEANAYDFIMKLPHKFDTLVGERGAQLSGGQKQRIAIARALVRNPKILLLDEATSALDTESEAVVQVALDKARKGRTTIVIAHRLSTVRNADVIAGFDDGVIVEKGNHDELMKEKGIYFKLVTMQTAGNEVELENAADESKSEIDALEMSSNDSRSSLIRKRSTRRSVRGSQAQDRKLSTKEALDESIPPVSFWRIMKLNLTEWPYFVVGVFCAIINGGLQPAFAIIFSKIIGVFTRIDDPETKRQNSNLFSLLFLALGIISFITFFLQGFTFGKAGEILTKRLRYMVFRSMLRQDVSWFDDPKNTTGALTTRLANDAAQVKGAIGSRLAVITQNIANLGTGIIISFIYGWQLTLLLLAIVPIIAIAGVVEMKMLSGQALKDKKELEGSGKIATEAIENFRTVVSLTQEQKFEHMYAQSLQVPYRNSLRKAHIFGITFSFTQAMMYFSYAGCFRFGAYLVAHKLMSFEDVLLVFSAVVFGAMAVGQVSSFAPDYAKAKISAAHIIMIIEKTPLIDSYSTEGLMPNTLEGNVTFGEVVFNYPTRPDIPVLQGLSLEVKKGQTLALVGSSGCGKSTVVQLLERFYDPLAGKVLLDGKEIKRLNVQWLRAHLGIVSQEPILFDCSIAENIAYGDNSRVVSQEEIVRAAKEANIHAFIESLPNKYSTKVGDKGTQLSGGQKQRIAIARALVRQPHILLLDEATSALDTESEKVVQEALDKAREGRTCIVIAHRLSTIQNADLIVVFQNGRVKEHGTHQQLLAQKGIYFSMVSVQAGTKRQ

For the compound `O=C(Cn1ccnc1[N+](=O)[O-])NCc1ccccc1` [Bz, N-Benzyl-2-nitro-1H-imidazole-1-acetamide], the 50% effective concentration (EC50) (as a rule, the concentration at which the effect is half-maximal) is 277 µM.
